Converted amounts (≈) assume the structure as drawn.
Columns and labels:
[1] = tested on: Mycolicibacterium smegmatis; experiment: Bacteriostatic activity against Mycobacterium smegmatis after 96 hrs by resazurin fluorescence assay; format: functional
[2] = Cytotoxicity against human HL60 cells after 48 hrs by MTT assay; format: functional, cell-based; conditions: HL-60, 48 h
1A9 = experiment: Cytotoxicity against human 1A9 cells after 48 hrs by MTT assay; format: functional, cell-based; conditions: 1A9, 48 h

Work on `CC(C)(C)OC(=O)N[C@@H](CSC(Cl)=C(Cl)Cl)C(=O)N[C@@H]1[C@@H](O)[C@H](O)[C@@H](CO)O[C@@H]1SC1CCCCC1` yielded an MIC [1] of over 1000 µM, an IC50 [2] of 60 µM and an IC50 (1A9) of 103 µM.

`N[C@@H](CSC(Cl)=C(Cl)Cl)C(=O)N[C@@H]1[C@@H](O)[C@H](O)[C@@H](CO)O[C@H]1SC1CCCCC1` showed an MIC [1] of 250 µM (≈ 127 µg/mL), an IC50 [2] of 112 µM and an IC50 (1A9) of 121 µM.

Compound `CC(C)(C)OC(=O)N[C@@H](CSC(Cl)=C(Cl)Cl)C(=O)N[C@@H]1[C@@H](O)[C@H](O)[C@@H](CO)O[C@H]1SC1CCCCC1` has an MIC [1] of over 1000 µM, an IC50 [2] of 16.5 µM and an IC50 (1A9) of 33 µM.

With `N[C@@H](CSC(Cl)=C(Cl)Cl)C(=O)N[C@@H]1[C@@H](O)[C@H](O)[C@@H](CO)O[C@@H]1SC1CCCCC1` the MIC [1] was 250 µM (≈ 127 µg/mL), the IC50 [2] was 76 µM and the IC50 (1A9) was 79 µM.

Reference: ChEMBL document CHEMBL3399990, “Synthesis of mycothiol conjugate analogues and evaluation of their antimycobacterial activity” (Bioorg Med Chem Lett, 2015)
